According to patent US4220755A, “Fortimicin B derivatives and process for production thereof” (Abbott Laboratories, priority 1976, dated 1980):
≈ marks a conversion by molar mass, not a printed value. Read-outs that look alike come from different tables or passages of the source.

Assays:
Test in all cases: MIC, agar dilution method, pH 8.0
Format in all cases: cell-based
[1] = test system: Staphylococcus aureus KY4279 ATCC6538P
Protocol: (§1) Measurement was carried out according to the agar dilution method, using a medium of pH 8.0, or the Japanese Antibiotic Medicament Standard, using a medium of pH 7.2 Units are in mcg/ml.
S.A.: Staphylococcus aureus KY4279 ATCC6538P

[2] = test system: Bacillus subtilis KY4273
Protocol: as §1
B.S.: Bacillus subtilis KY4273

[3] = test system: Eschericia coli KY4271 ATCC26; conditions: Escherichia coli
Protocol: as §1
E.C.: Eschericia coli KY4271 ATCC26

[4] = test system: Proteus vulgaris KY4277 ATCC6897
Protocol: as §1

[5] = test system: Shigella sonnei KY4281 ATCC9290
Protocol: as §1

[6] = test system: Salmonella typhosa KY4278 ATCC9992; conditions: Salmonella enterica, pH 8, read-out: Minimum inhibition concentration (MIC), ST
Protocol: as §1
S.T.: Salmonella typhosa KY4278 ATCC9992

[7] = test system: Klebsiella pneumoniae KY4275 ATCC10031; conditions: ATCC10031; pH 8.0; Klebsiella pneumoniae KY4275; read-out: Minimum inhibition concentration (MIC), KP
Protocol: as §1
K.P.: Klebsiella pneumoniae KY4275 ATCC10031.

[8] = pH 8.0, Staphylococcus aureus KY4279, read-out: Minimum inhibition concentration (MIC), SA
[9] = pH 8.0, Bacillus subtilis KY4273, read-out: Minimum inhibition concentration (MIC), BS
[10] = ATCC26, pH 8.0, E. coli KY4271, read-out: Minimum inhibition concentration (MIC), EC
[11] = ATCC6897, pH 8.0, Proteus vulgaris KY4277, read-out: Minimum inhibition concentration (MIC), PV
[12] = ATCC9290, pH 8.0, Shigella sonnei KY4281, read-out: Minimum inhibition concentration (MIC), SS
[13] = Staphylococcus aureus, pH 8, read-out: Minimum inhibition concentration (MIC), SA
[14] = ATCC26, pH 8, read-out: Minimum inhibition concentration (MIC), EC
[15] = Bacillus subtilis, KY4273, pH 8, read-out: Minimum inhibition concentration (MIC), BS

Work on CCCCCN(C)[C@H]1[C@@H](O)[C@H](O[C@H]2O[C@H]([C@H](C)N)CC[C@H]2N)[C@@H](N)[C@H](O)[C@@H]1OC [Compound 19, 4-N-(n-pentyl)fortimicin B] yielded an MIC [1, 8] of 25 µg/mL (≈ 59.7 µM), an MIC [2, 9] of 200 µg/mL (≈ 478 µM) and an MIC [3, 10] of 100 µg/mL (≈ 239 µM). The MIC [4, 11] was greater than 200 µg/mL, the MIC [5, 12] was 100 µg/mL (≈ 239 µM) and the MIC [6] was 100 µg/mL (≈ 239 µM). For the same compound, the MIC [7] was greater than 200 µg/mL.

CO[C@H]1[C@@H](O)[C@H](N)[C@@H](O[C@H]2O[C@H]([C@H](C)N)CC[C@H]2N)[C@H](O)[C@@H]1N(C)CCCN [Compound 20, 4-N-(3-aminopropyl)fortimicin B] gave an MIC [1, 13] of 1.25 µg/mL (≈ 3.08 µM), an MIC [2, 9] of 2.5 µg/mL (≈ 6.16 µM) and an MIC [3, 10] of 5 µg/mL (≈ 12.3 µM). For the same compound, the MIC [4, 11] was 10 µg/mL (≈ 24.7 µM), the MIC [5, 12] was 20 µg/mL (≈ 49.3 µM) and the MIC [6] was 1.25 µg/mL (≈ 3.08 µM). The MIC [7] was 80 µg/mL (≈ 197 µM).

In the case of CO[C@H]1[C@@H](O)[C@H](N)[C@@H](O[C@H]2O[C@H]([C@H](C)N)CC[C@H]2N)[C@H](O)[C@@H]1N(C)CCCCN [Compound 21, 4-N-(4-aminobutyl)fortimicin B], the MIC [1, 8] is reported as 0.32 µg/mL (≈ 0.763 µM), the MIC [2, 9] is reported as 0.32 µg/mL (≈ 0.763 µM) and the MIC [3, 14] is reported as 1.25 µg/mL (≈ 2.98 µM). It also gave an MIC [4, 11] of 2.5 µg/mL (≈ 5.96 µM), an MIC [5, 12] of 2.5 µg/mL (≈ 5.96 µM) and an MIC [6] of 1.25 µg/mL (≈ 2.98 µM). The MIC [7] was 5 µg/mL (≈ 11.9 µM).

CO[C@H]1[C@@H](O)[C@H](N)[C@@H](O[C@H]2O[C@H]([C@H](C)N)CC[C@H]2N)[C@H](O)[C@@H]1N(C)CCCCCN [Compound 22, 4-N-(5-aminopentyl)fortimicin B] was tested, and the MIC [1, 8] was 1.25 µg/mL (≈ 2.88 µM), the MIC [2, 9] was 0.63 µg/mL (≈ 1.45 µM) and the MIC [3, 10] was 5 µg/mL (≈ 11.5 µM). For the same compound, the MIC [4, 11] was 10 µg/mL (≈ 23.1 µM), the MIC [5, 12] was 5 µg/mL (≈ 11.5 µM) and the MIC [6] was 2.5 µg/mL (≈ 5.77 µM). It also gave an MIC [7] of 20 µg/mL (≈ 46.1 µM).

Compound CO[C@H]1[C@@H](O)[C@H](N)[C@@H](O[C@H]2O[C@H]([C@H](C)N)CC[C@H]2N)[C@H](O)[C@@H]1N(C)CCCCCCN [Compound 23, 4-N-(6-aminohexyl)fortimicin B] has an MIC [1, 8] of 5 µg/mL (≈ 11.2 µM), an MIC [2, 9] of 5 µg/mL (≈ 11.2 µM) and an MIC [3, 10] of 20 µg/mL (≈ 44.7 µM). For the same compound, the MIC [4, 11] was greater than 80 µg/mL, the MIC [5, 12] was greater than 80 µg/mL and the MIC [6] was 20 µg/mL (≈ 44.7 µM). It also gave an MIC [7] greater than 80 µg/mL.

CO[C@H]1[C@@H](O)[C@H](N)[C@@H](O[C@H]2O[C@H]([C@H](C)N)CC[C@H]2N)[C@H](O)[C@@H]1N(C)CCO [Compound 24, 4-N-(2-hydroxyethyl)fortimicin B] showed an MIC [1, 13] of 1.25 µg/mL (≈ 3.18 µM), an MIC [2, 9] greater than 80 µg/mL and an MIC [3, 10] of 5 µg/mL (≈ 12.7 µM). It also gave an MIC [4, 11] of 10 µg/mL (≈ 25.5 µM), an MIC [5, 12] of 10 µg/mL (≈ 25.5 µM) and an MIC [6] of 1.25 µg/mL (≈ 3.18 µM). It also gave an MIC [7] of 40 µg/mL (≈ 102 µM).

Work on CO[C@H]1[C@@H](O)[C@H](N)[C@@H](O[C@H]2O[C@H]([C@H](C)N)CC[C@H]2N)[C@H](O)[C@@H]1N(C)CCNCCN [Compound 25, 4-N-[2-(2-aminoethyl)aminoethyl]fortimicin B] yielded an MIC [1, 8] of 0.63 µg/mL (≈ 1.45 µM), an MIC [2, 15] of 1.25 µg/mL (≈ 2.88 µM) and an MIC [3, 14] of 1.25 µg/mL (≈ 2.88 µM). The MIC [4, 11] was 5 µg/mL (≈ 11.5 µM), the MIC [5, 12] was 5 µg/mL (≈ 11.5 µM) and the MIC [6] was 1.25 µg/mL (≈ 2.88 µM). It also gave an MIC [7] of 5 µg/mL (≈ 11.5 µM).

CNCCN(C)[C@H]1[C@@H](O)[C@H](O[C@H]2O[C@H]([C@H](C)N)CC[C@H]2N)[C@@H](N)[C@H](O)[C@@H]1OC [Compound 26, 4-N-(2-methylaminoethyl)fortimicin B] gave an MIC [1, 8] of 0.04 µg/mL (≈ 0.0986 µM), an MIC [2, 9] of 0.32 µg/mL (≈ 0.789 µM) and an MIC [3, 10] of 0.16 µg/mL (≈ 0.395 µM). The MIC ([4]; Proteus vulgaris, ATCC6897, pH 8, read-out: Minimum inhibition concentration (MIC), PV) was 1.25 µg/mL (≈ 3.08 µM), the MIC [5, 12] was 5 µg/mL (≈ 12.3 µM) and the MIC [6] was 1.25 µg/mL (≈ 3.08 µM). For the same compound, the MIC [7] was 5 µg/mL (≈ 12.3 µM).

With CNCCC(O)CN(C)[C@H]1[C@@H](O)[C@H](O[C@H]2O[C@H]([C@H](C)N)CC[C@H]2N)[C@@H](N)[C@H](O)[C@@H]1OC (stereo partly drawn) [Compound 30, 4-N-[(R,S)-4-methylamino-2-hydroxybutyl]fortimicin B] the MIC [1, 8] was 0.08 µg/mL (≈ 0.178 µM), the MIC [2, 9] was 0.02 µg/mL (≈ 0.0445 µM) and the MIC [3, 10] was 0.32 µg/mL (≈ 0.712 µM). The MIC [4, 11] was 0.16 µg/mL (≈ 0.356 µM), the MIC [5, 12] was 0.63 µg/mL (≈ 1.4 µM) and the MIC [6] was 0.08 µg/mL (≈ 0.178 µM). The MIC [7] was 0.32 µg/mL (≈ 0.712 µM).

With CO[C@H]1[C@@H](O)[C@H](N)[C@@H](O[C@H]2O[C@H]([C@H](C)N)CC[C@H]2N)[C@H](O)[C@@H]1N(C)C[C@@H](O)CN [Compound 31, 4-N-[(S)-3-amino-2-hydroxypropyl]fortimicin B] the MIC [1, 8] was 0.16 µg/mL (≈ 0.38 µM), the MIC [2, 9] was 0.32 µg/mL (≈ 0.759 µM) and the MIC [3, 10] was 2.5 µg/mL (≈ 5.93 µM). It also gave an MIC [4, 11] of 1.25 µg/mL (≈ 2.97 µM), an MIC [5, 12] of 2.5 µg/mL (≈ 5.93 µM) and an MIC [6] of 0.63 µg/mL (≈ 1.49 µM). It also gave an MIC [7] of 2.5 µg/mL (≈ 5.93 µM).

Compound CO[C@H]1[C@@H](O)[C@H](N)[C@@H](O[C@H]2O[C@H]([C@H](C)N)CC[C@H]2N)[C@H](O)[C@@H]1N(C)C[C@@H](O)CCCN [Compound 33, 4-N-[(S)-5-amino-2-hydroxypentyl]fortimicin B] has an MIC [1, 8] of 0.32 µg/mL (≈ 0.712 µM), an MIC [2, 15] of 1.25 µg/mL (≈ 2.78 µM) and an MIC [3, 10] of 2.5 µg/mL (≈ 5.56 µM). The MIC [4, 11] was 5 µg/mL (≈ 11.1 µM), the MIC ([5]; Shigella sonnei, ATCC9290, pH 8, read-out: Minimum inhibition concentration (MIC), SS) was 1.25 µg/mL (≈ 2.78 µM) and the MIC [6] was 10 µg/mL (≈ 22.2 µM).
